Results on nine molecules are retold here after publication PMC5438973 (Frontiers in Psychiatry, 2017).

Read-outs that look alike come from different tables or passages of the source. Where only a bound is given, the exact number is not on record here.

Data set [1] deals with Male, NIH Swiss mice. In words: Locomotor activity. To be noted: 12/dose group.
Data set [2] concerns Male, NIH Swiss mice. The data set is described as follows: Nestlet-shredding. To be noted: 8/dose group.
Data set [3] deals with Male, Wistar rats. In words: Schedule-induced polydipsia. The class given is in vivo, rat. To be noted: for Effect on excessive drinking / amount of water consumed / Effect on number of responses emitted (lever pressing for food): acute dosing; for Effect of antagonist on the decrease in excessive water consumption produced by CPD 1: CPD 1 5.6 mg/kg. An excerpt:
Rats were used in these experiments as they have been utilized for such studies in the past with great success in generating significant polydipsia ([16]). Male, Wistar rats were singly housed, and maintained at approximately 85% of their free-feeding weights with free access to water. Twelve adult male, Wistar rats (Harlan Industries, Indianapolis, IN, USA) were used. They were allowed to acclimate to our vivarium for at least 3 days prior to testing. They were 2 months old at the start of the experiments that lasted approximately 6–8 months and were without explicit experimental experience prior to this study. The rats were singly housed, and maintained at approximately 86–91% of their free-feeding weights with post session supplemental feeding of Lab Diet #5001 for rodents (PMI Nutrition International Inc., St. Louis, MO, USA). Body weights were corrected for the normal growth curve of Wistar rats such that actual body weight of each rat increased over the experimental time frame. Water was available continuously in the individual home cages. Rats were inspected daily 7 days/week by experimenters and veterinary staff.
The experiments were conducted using operant behavior test chambers ENV-007 (Med Associates Inc., Georgia, VT, USA), 30.5 cm × 24.1 cm × 29.2 cm. The test chambers were contained within light and sound attenuating shells. A food trough was mounted 2 cm off the grid floor on the centerline. Two response levers were centered 8 cm off the centerline and 7 cm off the grid floor. Three lights were located above each response lever at 15 cm off the grid floor. All events were controlled and lever-press data were recorded by a Compaq computer running MED-PC Version IV (Med Associates Inc., Georgia, VT, USA). The water bottle located within each chamber was weighed before and after experimental sessions.
Experimental sessions lasted 90 min. Test compounds or drug vehicle were administered on Tuesdays and Fridays, given the stability of performance (within 15% variation of the individual animal). Non-injection, control performances were on Thursdays. […] Dose-effect curves and drug interaction data were created by repeated testing in groups of five to eight rats. Test compounds were administered as described in figure legends. The effects of the compound are expressed as a percent of control for each individual animal. Results were analyzed by ANOVA followed by Dunnett’s multiple comparison (p < 0.05).
Thus, in keeping with the guidelines of animal care and use followed here, we utilized the minimum number of animals required for signal detection.

Data set [4] has as its target T1, h5-HT2B (Homo sapiens, UniProt P41595).
T1 construct: expressed in transfected cells; host or cells: AV12 cells
In words: GTP-γ-[35S] functional assay (SPA), AV12 cells. It counts as biochemical. To be noted: GTPgs functional assay, human recombinant cell line. An excerpt:
(§1) 5-HT2 receptors are functionally coupled to specific G-proteins. Agonist activation of 5-HT2 G-protein coupled receptors results in the release of GDP from alpha-subunit (G alpha q or G alpha i) of the G-protein and the subsequent binding of GTP. The binding of the stable analog GTP-g-[^35S] is an indicator of receptor activation. Human cloned 5-HT2A, −2B, and −2C receptors were expressed in AV12 cells. GTP-g-[^35S] nucleotide exchange scintillation proximity assay (SPA) was used to measure binding as previously described ([14]).

Data set [5] concerns the target T2, h5-HT2C (Homo sapiens, UniProt P28335).
T2 construct: expressed in transfected cells; host or cells: AV12 cells
The data set is described as follows: GTP-γ-[35S] functional assay (SPA), AV12 cells. The class given is biochemical. To be noted: GTPgs functional assay, human recombinant cell line.
Source text: as §1

Data set [6] has as its target T3, h5-HT2A (Homo sapiens, UniProt P28223).
T3 construct: expressed in transfected cells; host or cells: AV12 cells
In words: GTP-γ-[35S] functional assay (SPA), AV12 cells. It counts as biochemical. To be noted: GTPgs functional assay, human recombinant cell line.
Source text: as §1

For data set [7], the system named is Male, NIH Swiss mice. To be noted: 12/dose group.
For data set [8], the system named is Male, NIH Swiss mice. The data set is described as follows: Rotarod performance. It counts as in vivo, mouse. An excerpt:
Mice were not pretrained on this task.
A general note: Falling from the rotarod earlier than controls is read as motor impairment.

Data set [9] deals with Male, NIH Swiss mice. To be noted: mouse, in vivo, 60 min.
The test system of data set [10] is Male, Wistar rats. The data set is described as follows: Isoproterenol-induced drinking. To be noted: (±)-isoproterenol 30 μg/kg, s.c. It counts as in vivo, rat. As to the method: Male, Wistar rats (different from those rats used in the schedule-induced polydipsia studies) were used. They were 331 ± 11 g at the initiation of this study. Compound 1 (5.6 mg/kg, s.c.) was evaluated for its ability to reduce drinking. (±)-isoproterenol (30 μg/kg, s.c.) was given to induce drinking (n = 5–20 rat/group). Ten minutes after vehicle or (±)-isoproterenol injection, rats were given either vehicle or Compound 1 and a 60 min session began in which the rats in individual housing cages were given access to water 20 min after the second injection. The weight of the water bottle before and after the 60 min period was measured to the nearest 0.1 g. After the experiment, the animals were returned to their living cages with continuous access to food and water.

The mark [11] stands for this setting: fluoxetine 30 mg/kg with SB-242084 3 mg/kg.

T2 sequence (P28335 33-458): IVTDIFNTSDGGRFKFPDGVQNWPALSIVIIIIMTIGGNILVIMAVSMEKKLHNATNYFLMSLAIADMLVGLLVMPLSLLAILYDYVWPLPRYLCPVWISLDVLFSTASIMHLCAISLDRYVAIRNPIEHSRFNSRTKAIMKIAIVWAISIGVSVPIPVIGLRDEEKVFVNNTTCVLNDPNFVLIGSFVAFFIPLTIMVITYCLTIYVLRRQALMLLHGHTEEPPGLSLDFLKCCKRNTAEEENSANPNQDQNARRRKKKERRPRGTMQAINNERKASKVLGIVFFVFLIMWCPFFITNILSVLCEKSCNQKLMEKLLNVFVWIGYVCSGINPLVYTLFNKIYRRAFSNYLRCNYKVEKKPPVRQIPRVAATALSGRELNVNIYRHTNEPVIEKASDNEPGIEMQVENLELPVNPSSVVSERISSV
T1 sequence (P41595 whole entry): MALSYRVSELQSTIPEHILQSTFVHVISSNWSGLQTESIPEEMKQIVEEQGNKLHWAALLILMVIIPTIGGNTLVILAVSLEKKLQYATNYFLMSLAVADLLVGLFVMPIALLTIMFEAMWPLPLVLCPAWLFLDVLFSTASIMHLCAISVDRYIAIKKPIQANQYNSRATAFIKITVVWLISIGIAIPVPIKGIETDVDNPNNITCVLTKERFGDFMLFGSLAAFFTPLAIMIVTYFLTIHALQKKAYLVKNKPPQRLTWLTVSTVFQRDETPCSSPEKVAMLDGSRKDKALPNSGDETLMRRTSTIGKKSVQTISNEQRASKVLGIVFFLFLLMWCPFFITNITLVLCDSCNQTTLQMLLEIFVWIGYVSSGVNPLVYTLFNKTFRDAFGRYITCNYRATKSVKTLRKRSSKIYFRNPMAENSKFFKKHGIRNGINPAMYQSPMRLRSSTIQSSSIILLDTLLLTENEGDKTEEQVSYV
T3 sequence (P28223 whole entry): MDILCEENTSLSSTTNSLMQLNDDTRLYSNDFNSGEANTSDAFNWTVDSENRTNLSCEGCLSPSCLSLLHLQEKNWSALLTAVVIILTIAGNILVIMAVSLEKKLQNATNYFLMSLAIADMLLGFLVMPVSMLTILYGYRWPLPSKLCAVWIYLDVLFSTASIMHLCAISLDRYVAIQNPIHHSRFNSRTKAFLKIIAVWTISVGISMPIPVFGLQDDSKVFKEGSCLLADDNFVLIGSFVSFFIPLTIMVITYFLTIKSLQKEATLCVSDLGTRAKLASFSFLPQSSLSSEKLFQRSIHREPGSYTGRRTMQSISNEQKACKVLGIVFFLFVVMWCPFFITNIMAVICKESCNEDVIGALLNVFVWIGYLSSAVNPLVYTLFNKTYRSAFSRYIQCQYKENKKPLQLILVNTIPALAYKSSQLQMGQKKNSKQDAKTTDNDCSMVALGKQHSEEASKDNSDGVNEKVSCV

In the case of `C[C@H](N)Cn1ccc2cc(F)c(Cl)cc21` [Ro 60-0175], the “Locomotor activity, minimal effective dose” value is listed as “greater than 10 milligrams per kilogram” in [1] and more than 1 milligrams per kilogram in data set [1] (listed as RO 60-0175). The “Nestlet-shredding, minimal effective dose” value is on record as “less than 1 milligrams per kilogram” in [2] and less than 1 milligrams per kilogram in data set [2] (listed as RO 60-0175). The “Effect on excessive drinking / amount of water consumed” value (“Effect on excessive drinking / amount” below) in [3] (given alone) is given as “significantly decreased”. Besides, the “Effect on number of responses emitted (lever pressing for food)” value (shortened to “Effect on number of responses emitted”) in data set [3] (given alone) is given as “significantly decreased”. Also, the 50% effective concentration (EC50) (in general, the concentration giving half of the maximal effect) in data set [4] worked out at 57 ± 1 nM; in [5], 5.1 ± 1 nM; in data set [6], 130 ± 1 nM. The figures for the maximal response (Emax) in data set [4], in data set [5] and in data set [6] were 58 ± 1%, 104 ± 1% and 59 ± 1%, respectively. In addition, in [7], the “Marble-burying, minimal effective dose” value is 0.1 milligrams per kilogram. Further, the “Rotarod, minimal effective dose” value in data set [8] (mice, 12/dose group) is listed as “greater than 1 milligrams per kilogram”; in data set [8] (mice, 12/dose group, listed as RO 60-0175), more than 10 milligrams per kilogram.
Turning to `CN(C)CCCN1c2ccccc2CCc2ccc(Cl)cc21` [Clomipramine, clomipramine], in data set [3] (given alone), the “Effect on excessive drinking / amount” value is recorded as “decreased” and the “Effect on number of responses emitted” value was “decreased”.
As for `C[C@H](N)Cc1ccccc1` [D-amphetamine], in [3] (given alone), the “Effect on excessive drinking / amount” value was “decreased” and the “Effect on number of responses emitted” value is given as “increased”.
As to `Clc1cccc(N2CCNCC2)c1` [mCPP, meta-chlorophenylpiperazine, reference compound], the “Effect on excessive drinking / amount” value in data set [3] (given alone) is “significantly decreased”. In data set [3] (given alone), the “Effect on number of responses emitted” value was “significantly decreased”. Besides, the Emax (usually the greatest response seen or fitted, relative to the assay's reference) in [4] was determined as 84 ± 2%; in [5], 99 ± 2%; in data set [6], 88 ± 2%.
Turning to `Cc1cc2c(cc1Cl)N(C(=O)Nc1ccc(Oc3cccnc3C)nc1)CC2` [SB242084, 6-chloro-5-methyl-N-{6-[(2-methylpyridin-3-yl)oxy]pyridin-3-yl}indoline-1-carboxamide], in data set [3] (3 mg/kg given alone), the “Responses in percent of control” value is 191.2% of controls and the “Water consumed (H2O) in percent of control” value is 112.1% of controls. In addition, the “Effect of antagonist on the decrease in excessive water consumption produced by CPD 1” value in data set [3] was “prevented”. For the same molecule, the “Effect of antagonist on the effects of D-amphetamine” value in data set [3] (SB242084 3 mg/kg, D-amphetamine 3 mg/kg) was “did not alter”. In addition, in [3] (SB-242084 3 mg/kg, fluoxetine 30 mg/kg), the “Effect of antagonist on the decreases in water consumption and response output produced by fluoxetine” value is given as “significantly attenuated”. In data set [3] (given alone), the “Effect on excessive drinking / amount” value was “did not significantly affect” and the “Effect on number of responses emitted” value is “increased”.
Consider `COc1cccc([C@H](O)C2CCN(CCc3ccc(F)cc3)CC2)c1OC` [MDL100907, (R)-(2,3-dimethoxyphenyl)-[1-[2-(4-fluorophenyl)ethyl]-4-piperidyl]methanol], for which the “Effect of antagonist on the decrease in excessive water consumption produced by CPD 1” value in data set [3] was “did not significantly alter”.
As to `CNCCC(Oc1ccc(C(F)(F)F)cc1)c1ccccc1` (stereo not shown) [Fluoxetine, fluoxetine], the “Nestlet-shredding, minimal effective dose” value in data set [2] is on record as 10 milligrams per kilogram. Besides, the “Locomotor activity, minimal effective dose” value in data set [9] is more than 10 milligrams per kilogram. Also, the “Responses (Rsp) in percent of controls” value in [3] (10 mg/kg given alone) is listed as 102.3% of controls; in data set [3] (30 mg/kg, i.p., given alone), 6% of controls; in data set [3] (setting [11]), 92.7% of controls. Also, the “Water consumed (H2O) in percent of controls” value in [3] (10 mg/kg given alone) is reported as 66.7% of controls; in data set [3] (30 mg/kg, i.p., given alone), 8% of controls; in [3] (fluoxetine 10 mg/kg with SB-242084 3 mg/kg), 99.2% of controls; in data set [3] (setting [11]), 101.4% of controls. Further, in [3] (Dunnett p < 0.05), the “Dose at which statistically significant reduction of excessive drinking was detected” value is 20 mg/kg. In data set [3] (Dunnett p < 0.05), the “Dose at which statistically significant reduction of food-maintained responding was detected” value is on record as 20 mg/kg. Besides, the “Marble-burying, minimal effective dose” value in data set [7] worked out at 10 milligrams per kilogram. The “Rotarod, minimal effective dose” value in [8] (male, NIH Swiss, mouse, in vivo, 2 min) is reported as more than 30 milligrams per kilogram.
Take `CC(C)NCC(O)c1ccc(O)c(O)c1` (stereo not shown) [Isoproterenol, isoproterenol, reference compound]: in data set [10], the “Increase of water consumption relative to vehicle-treated rats” value came to 432%.
For the molecule `CCCC(C)C1(CC)C(=O)NC(=O)NC1=O` (stereo not shown) [Pentobarbital, pentobarbital], the “Nestlet-shredding, minimal effective dose” value in [2] was determined as 10 milligrams per kilogram. Also, in [7], the “Marble-burying, minimal effective dose” value is given as more than 17 milligrams per kilogram. In addition, in [8] (mice, 12/dose group), the “Rotarod, minimal effective dose” value is 5.6 milligrams per kilogram.
